Patent US9765074B2, “Inhibitors of the renal outer medullary potassium channel” (Merck Sharp & Dohme Corp., priority 2013, dated 2017)

Biological target: T1, hROMK (hKir1.1) (Homo sapiens, UniProt P48048)
T1 construct: expressed in transfected cells
T1 sequence (P48048 1-391): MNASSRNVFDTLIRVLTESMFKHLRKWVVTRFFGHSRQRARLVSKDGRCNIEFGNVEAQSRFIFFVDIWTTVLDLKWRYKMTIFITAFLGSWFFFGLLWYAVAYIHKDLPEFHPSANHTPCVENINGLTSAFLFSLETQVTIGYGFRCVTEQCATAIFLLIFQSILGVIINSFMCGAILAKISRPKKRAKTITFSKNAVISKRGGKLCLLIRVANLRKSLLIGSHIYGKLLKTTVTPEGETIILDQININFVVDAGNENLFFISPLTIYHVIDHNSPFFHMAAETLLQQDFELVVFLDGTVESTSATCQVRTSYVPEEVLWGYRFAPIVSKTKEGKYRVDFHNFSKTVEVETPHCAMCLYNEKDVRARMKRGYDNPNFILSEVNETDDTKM
Assay: Thallium Flux Assay (ROMK channel functional thallium flux, FLIPR-Tetra)
Format: cell-based
Conditions: HEK293 cells stably expressing hROMK (hKir1.1); 30 min compound incubation
Summary of the method: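 Thallium flux read by FluxOR fluorescence ([…]) for ~10 min after adding 3 mM Tl+/0.3 mM K+ final. Stable HEK-hKir1.1 cells were dye-loaded 90 min, exposed to compound 30 min at room temperature in ouabain/probenecid buffer; IC50 relative to a 3 μM control inhibitor.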

Row | SMILES | IC50
1 | CC1=C(N2C(=O)C3(CCN(C[C@H](O)c4ccc(-n5cnnn5)cc4F)CC3)CC2C)COC1=O (single isomer, unassigned) [Example 141] | 30 nM
2 | CC1=C(N2C(=O)C3(CCN(C[C@@H](O)c4ccc(-n5cnnn5)cc4F)CC3)CC2C)COC1=O (single isomer, unassigned) [Example 142] | 30 nM
3 | COC1CN(C2=C(C)C(=O)OC2)C(=O)C12CC1CCC(C2)N1C[C@H](O)c1ccc(-n2cnnn2)nc1 (single isomer, unassigned) [Example 159] | 40 nM
4 | COC1CN(C2=C(C)C(=O)OC2)C(=O)C12CC1CCC(C2)N1C[C@H](O)c1cnc(-n2cnnn2)cn1 (single isomer, unassigned) [Example 160] | 110 nM
5 | COC1CN(C2=C(C)C(=O)OC2)C(=O)C12CC1CCC(C2)N1C[C@H](O)c1ccc(-n2cnnn2)nc1 (single isomer, unassigned) [Example 161] | 30 nM
6 | COC1CN(C2=C(C)C(=O)OC2)C(=O)C12CC1CCC(C2)N1C[C@H](O)c1cnc(-n2cnnn2)cn1 (single isomer, unassigned) [Example 162] | 40 nM
7 | COC1CN(C[C@H](O)c2cnc(-n3cnnn3)cn2)CCC12CCN(C1=C(C)C(=O)OC1)C2=O (single isomer, unassigned) [Example 172] | 180 nM
8 | COC1CN(C[C@@H](O)c2cnc(-n3cnnn3)cn2)CCC12CCN(C1=C(C)C(=O)OC1)C2=O (single isomer, unassigned) [Example 173] | 770 nM
9 | COC1CN(C[C@H](O)c2cnc(-n3cnnn3)cn2)CCC12CCN(C1=C(C)C(=O)OC1)C2=O (single isomer, unassigned) [Example 178] | 790 nM
10 | COC1CN(C[C@@H](O)c2cnc(-n3cnnn3)cn2)CCC12CCN(C1=C(C)C(=O)OC1)C2=O (single isomer, unassigned) [Example 179] | 330 nM
11 | CC1=C(N2CCC3(CCN(C[C@H](O)c4nnc(-n5cnnn5)cc4C)CC3F)C2=O)COC1=O (single isomer, unassigned) [Example 185] | 50 nM
12 | CC1=C(N2CCC3(CCN(C[C@@H](O)c4nnc(-n5cnnn5)cc4C)CC3F)C2=O)COC1=O (single isomer, unassigned) [Example 186] | 70 nM
13 | CC1=C(N2CCC3(CCN(C[C@H](O)c4ccc(-n5cnnn5)nc4C)CC3O)C2=O)COC1=O (single isomer, unassigned) [Example 202] | 60 nM
14 | CC1=C(N2CCC3(CCN(C[C@H](O)c4ccc(-n5cnnn5)nc4C)CC3O)C2=O)COC1=O (single isomer, unassigned) [Example 203] | 150 nM
15 | O=C1C=C(N2C(=O)C3(CCN(C[C@H](O)c4cnc(-n5cnnn5)cn4)CC3)CC2CF)CO1 (single isomer, unassigned) [Example 204] | 300 nM
16 | O=C1C=C(N2C(=O)C3(CCN(C[C@H](O)c4cnc(-n5cnnn5)cn4)CC3)CC2CF)CO1 (single isomer, unassigned) [Example 205] | 30 nM
17 | CC1OC(=O)C=C1N1C(=O)C2(CCN(C[C@H](O)c3ccc(-n4cnnn4)nc3)CC2)C[C@@H]1C (single isomer, unassigned) [Example 228] | 20 nM
18 | CC1OC(=O)C=C1N1C(=O)C2(CCN(C[C@H](O)c3ccc(-n4cnnn4)nc3)CC2)C[C@@H]1C (single isomer, unassigned) [Example 229] | 280 nM
19 | CC1OC(=O)C=C1N1C(=O)C2(CCN(C[C@H](O)c3ccc(-n4cnnn4)nc3)CC2)C[C@H]1C (single isomer, unassigned) [Example 230] | 80 nM
20 | CC1OC(=O)C=C1N1C(=O)C2(CCN(C[C@H](O)c3ccc(-n4cnnn4)nc3)CC2)C[C@H]1C (single isomer, unassigned) [Example 231] | 1530 nM
21 | CC1CC2(CCN(CCc3cnc(-n4cnnn4)cn3)CC2)C(=O)N1C1=CC(=O)OC1 (single isomer, unassigned) [Example 242, 3-methyl-1-oxo-2-(5-oxo-2,5-dihydrofuran-3-yl)-8-{2-[5-(1H-tetrazol-1-yl)pyrazin-2-yl]ethyl}-2-aza-8-azoniaspiro[4.5]decane] | 40 nM
22 | CC1=C(N2CC(O)C3(CCN(CCc4ccc(-n5cnnn5)nn4)CC3)C2=O)COC1=O (single isomer, unassigned) [Example 243, 4-hydroxy-2-(4-methyl-5-oxo-2,5-dihydrofuran-3-yl)-1-oxo-8-{2-[6-(1H-tetrazol-1-yl)pyridazin-3-yl]ethyl}-2-aza-8-azoniaspiro[4.5]decane] | 210 nM
23 | CC1=C(N2CC(O)C3(CCN(CCc4ccc(-n5cnnn5)nc4)CC3)C2=O)COC1=O (single isomer, unassigned) [Example 244, 4-hydroxy-2-(4-methyl-5-oxo-2,5-dihydrofuran-3-yl)-1-oxo-8-{2-[6-(1H-tetrazol-1-yl)pyridin-3-yl]ethyl}-2-aza-8-azoniaspiro[4.5]decane] | 30 nM

Results, then the compound that gave them:

Row | IC50 | SMILES
24 | 40 nM | COC1CN(C[C@H](O)c2ccc(-n3cnnn3)nc2)CCC12CCN(C1=C(C)C(=O)OC1)C2=O (single isomer, unassigned) [Example 170]
25 | 60 nM | COC1CN(C[C@@H](O)c2ccc(-n3cnnn3)nc2)CCC12CCN(C1=C(C)C(=O)OC1)C2=O (single isomer, unassigned) [Example 171]
26 | 90 nM | COC1CN(C[C@H](O)c2ccc(-n3cnnn3)nc2)CCC12CCN(C1=C(C)C(=O)OC1)C2=O (single isomer, unassigned) [Example 176]
27 | 70 nM | COC1CN(C[C@@H](O)c2ccc(-n3cnnn3)nc2)CCC12CCN(C1=C(C)C(=O)OC1)C2=O (single isomer, unassigned) [Example 177]
28 | 80 nM | CC1=C(N2CCC3(CCN(C[C@H](O)c4ccc(-n5cnnn5)nn4)CC3F)C2=O)COC1=O (single isomer, unassigned) [Example 183]
29 | 70 nM | CC1=C(N2CCC3(CCN(C[C@@H](O)c4ccc(-n5cnnn5)nn4)CC3F)C2=O)COC1=O (single isomer, unassigned) [Example 184]
30 | 10 nM | CC1=C(N2CCC3(CCN(C[C@H](O)c4ccc(-n5cnnn5)nc4)CC3F)C2=O)COC1=O (single isomer, unassigned) [Example 192]
31 | 20 nM | CC1=C(N2CCC3(CCN(C[C@@H](O)c4ccc(-n5cnnn5)nc4)CC3F)C2=O)COC1=O (single isomer, unassigned) [Example 193]
32 | 10 nM | CC1=C(N2CCC3(CCN(C[C@H](O)c4ccc(-n5cnnn5)nc4)CC3F)C2=O)COC1=O (single isomer, unassigned) [Example 194]
33 | 10 nM | CC1=C(N2CCC3(CCN(C[C@@H](O)c4ccc(-n5cnnn5)nc4)CC3F)C2=O)COC1=O (single isomer, unassigned) [Example 195]
34 | 40 nM | CC1=C(N2CCC3(CCN(C[C@H](O)c4ccc(-n5cnnn5)nn4)CC3F)C2=O)COC1=O (single isomer, unassigned) [Example 196]
35 | 30 nM | CC1=C(N2CCC3(CCN(C[C@@H](O)c4ccc(-n5cnnn5)nn4)CC3F)C2=O)COC1=O (single isomer, unassigned) [Example 197]
36 | 10 nM | CC1=C(N2CCC3(CCN(C[C@H](O)c4nnc(-n5cnnn5)cc4C)CC3F)C2=O)COC1=O (single isomer, unassigned) [Example 198]
37 | 20 nM | CC1=C(N2CCC3(CCN(C[C@@H](O)c4nnc(-n5cnnn5)cc4C)CC3F)C2=O)COC1=O (single isomer, unassigned) [Example 199]
